{"source": "EPA's ToxRefDB 2", "key": {"dog [1]": {"system": "dog", "details": "Sub-acute repeat dose toxicity; beagle; Oral; Gavage/Intubation; dose end: 21 day; group: systemic; systemic / in life observation / clinical signs / abnormal feces + systemic / in life observation / clinical signs / watery stools"}, "rat [2]": {"system": "rat", "details": "Sub-acute repeat dose toxicity, Oral, Gavage/Intubation, dose end: 12 day, group: systemic"}, "dog [3]": {"system": "dog", "details": "Subchronic oral toxicity in nonrodent, beagle, Gavage/Intubation, dose end: 92 day, group: systemic"}, "dog [4]": {"system": "dog", "details": "Sub-acute repeat dose toxicity; beagle; Oral; Gavage/Intubation; dose end: 16 day; group: systemic; systemic / in life observation / clinical signs / abnormal feces + systemic / in life observation / clinical signs / emesis + systemic / in …"}, "dog [5]": {"system": "dog", "details": "Sub-acute repeat dose toxicity; beagle; Oral; Gavage/Intubation; dose end: 23 day; group: systemic; systemic / in life observation / clinical signs / abnormal feces + systemic / in life observation / clinical signs / watery stools"}, "rabbit": {"system": "rabbit", "details": "Sub-acute repeat dose toxicity, new zealand white, Oral, Gavage/Intubation, dose end: 5 day, group: systemic"}, "rat [6]": {"system": "rat", "details": "Subchronic oral toxicity in rodents, sprague dawley, Gavage/Intubation, dose end: 92 day, group: systemic"}, "rat [7]": {"system": "rat", "details": "Sub-acute repeat dose toxicity, sprague dawley, Oral, Gavage/Intubation, dose end: 15 day, group: systemic"}, "mouse [8]": {"system": "mouse", "details": "Subchronic oral toxicity in rodents, cd1, Feed, dose end: 91 day, group: systemic"}, "mouse [9]": {"system": "mouse", "details": "Combined chronic toxicity/carcinogenicity, cd1, Oral, Feed, dose end: 80 week, group: systemic"}, "rat [10]": {"system": "rat", "details": "Subchronic oral toxicity in rodents, other, Feed, dose end: 90 day, group: systemic"}, "rat [11]": {"system": "rat", "details": "Combined chronic toxicity/carcinogenicity, sprague dawley, Oral, Feed, dose end: 104 week, group: systemic"}, "dog [12]": {"system": "dog", "details": "Chronic toxicity, beagle, Oral, Feed, dose end: 52 week, group: systemic"}, "dog [13]": {"system": "dog", "details": "Subchronic oral toxicity in nonrodent, beagle, Feed, dose end: 90 day, group: systemic, systemic / in life observation / body weight / body weight gain + systemic / in life observation / clinical signs / emaciation + systemic / …"}, "rat [14]": {"system": "rat", "details": "Multigenerational reproductive toxicity study, sprague dawley, Oral, Feed, dose end: 2 generation"}, "[15]": {"details": "systemic / in life observation / body weight / body weight + systemic / in life observation / clinical signs / red or crusty deposits around…"}, "[16]": {"details": "systemic / in life observation / clinical signs / salivation + systemic / organ weight / liver / absolute"}, "[17]": {"details": "systemic / clinical chemistry / [other] / [other] + systemic / clinical chemistry / cytochrome p450, nos / cytochrome p450, nos + systemic…"}, "[18]": {"details": "systemic / in life observation / body weight / body weight + systemic / in life observation / clinical signs / abnormal feces + systemic / …"}, "[19]": {"details": "systemic / in life observation / body weight / body weight gain + systemic / in life observation / food consumption / food consumption"}, "[20]": {"details": "systemic / in life observation / body weight / body weight gain + systemic / in life observation / food consumption / food consumption + …"}, "[21]": {"details": "systemic / in life observation / mortality / mortality + systemic / pathology gross / stomach / discolored + systemic / pathology gross / …"}, "[22]": {"details": "systemic / pathology microscopic / liver / hypertrophy"}, "[23]": {"details": "systemic / pathology microscopic / liver / hypertrophy + systemic / clinical chemistry / albumin / albumin + systemic / clinical chemistry…"}, "[24]": {"details": "systemic / pathology gross / ear / misshapen"}, "[25]": {"details": "systemic / organ weight / liver / absolute + systemic / organ weight / liver / relative to body weight + systemic / clinical chemistry / …"}, "[26]": {"details": "systemic / organ weight / liver / absolute + systemic / organ weight / liver / relative to body weight + systemic / in life observation / …"}, "[27]": {"details": "systemic / clinical chemistry / globulins / globulins + systemic / pathology gross / full gross necropsy / lymp lymphoma malignant …"}, "[28]": {"details": "systemic / in life observation / body weight / body weight + systemic / in life observation / body weight / body weight gain + systemic / in…"}, "[29]": {"details": "group: offspring, systemic / in life observation / body weight / offspring (pup) weight"}, "[30]": {"details": "group: parental, systemic / in life observation / body weight / body weight gain + systemic / in life observation / body weight / body weight"}, "[31]": {"details": "group: reproductive, reproductive / reproductive performance / gestational length / gestational length"}}}
{"smiles": "CCC(CC)Nc1cc(C)nc(Oc2c(C)cc(C)cc2C)c1C", "values": [{"measurement": "LEL", "setting": "dog [1]", "result": 5, "unit": "mg/kg/day"}, {"measurement": "LOAEL", "setting": "dog [1]", "result": "> 5", "unit": "mg/kg/day"}, {"measurement": "NEL", "setting": "dog [1]", "result": 1, "unit": "mg/kg/day"}, {"measurement": "NOAEL", "setting": "dog [1]", "result": "≥ 5", "unit": "mg/kg/day"}, {"measurement": "LOAEL", "setting": "rat [2]; [15]", "result": "> 500", "unit": "mg/kg/day"}, {"measurement": "NOAEL", "setting": "rat [2]; [15]", "result": "≥ 500", "unit": "mg/kg/day"}, {"measurement": "LEL", "setting": "rat [2]; [16]", "result": 250, "unit": "mg/kg/day"}, {"measurement": "NEL", "setting": "rat [2]; [16]", "result": "< 250", "unit": "mg/kg/day"}, {"measurement": "LOAEL", "setting": "dog [3]; [17]", "result": "> 20", "unit": "mg/kg/day"}, {"measurement": "NOAEL", "setting": "dog [3]; [17]", "result": "≥ 20", "unit": "mg/kg/day"}, {"measurement": "LEL", "setting": "dog [3]; systemic / in life observation / clinical signs / abnormal feces", "result": 2, "unit": "mg/kg/day"}, {"measurement": "LEL", "setting": "dog [4]", "result": 20, "unit": "mg/kg/day"}, {"measurement": "LOAEL", "setting": "dog [4]", "result": "> 20", "unit": "mg/kg/day"}, {"measurement": "NEL", "setting": "dog [4]", "result": 10, "unit": "mg/kg/day"}, {"measurement": "NOAEL", "setting": "dog [4]", "result": "≥ 20", "unit": "mg/kg/day"}, {"measurement": "LEL", "setting": "dog [5]", "result": 1, "unit": "mg/kg/day"}, {"measurement": "LOAEL", "setting": "dog [5]", "result": "> 1", "unit": "mg/kg/day"}, {"measurement": "NEL", "setting": "dog [5]", "result": "< 1", "unit": "mg/kg/day"}, {"measurement": "NOAEL", "setting": "dog [5]", "result": "≥ 1", "unit": "mg/kg/day"}, {"measurement": "LOAEL", "setting": "rabbit; [18]", "result": "> 500", "unit": "mg/kg/day"}, {"measurement": "NEL", "setting": "rabbit; [18]", "result": 50, "unit": "mg/kg/day"}, {"measurement": "NOAEL", "setting": "rabbit; [18]", "result": "≥ 500", "unit": "mg/kg/day"}, {"measurement": "LEL", "setting": "rabbit; systemic / in life observation / food consumption / food consumption", "result": 100, "unit": "mg/kg/day"}, {"measurement": "LEL", "setting": "rat [6]; [19]", "result": 1, "unit": "mg/kg/day"}, {"measurement": "NEL", "setting": "rat [6]; [19]", "result": "< 1", "unit": "mg/kg/day"}, {"measurement": "LOAEL", "setting": "rat [6]; [20]", "result": "> 100", "unit": "mg/kg/day"}, {"measurement": "NOAEL", "setting": "rat [6]; [20]", "result": "≥ 100", "unit": "mg/kg/day"}, {"measurement": "LEL", "setting": "rat [7]; systemic / in life observation / body weight / body weight + systemic / in life observation / body weight / body weight gain + systemic / …", "result": 100, "unit": "mg/kg/day"}, {"measurement": "LOAEL", "setting": "rat [7]; [21]", "result": "> 1000", "unit": "mg/kg/day"}, {"measurement": "NOAEL", "setting": "rat [7]; [21]", "result": "≥ 1000", "unit": "mg/kg/day"}]}
{"smiles": "CCOCn1c(-c2ccc(Cl)cc2)c(C#N)c(Br)c1C(F)(F)F", "note": "[Chlorfenapyr]", "values": [{"measurement": "LOAEL", "setting": "mouse [8]; [22]", "result": 14.8, "unit": "mg/kg/day"}, {"measurement": "NEL", "setting": "mouse [8]; [23]", "result": 7.1, "unit": "mg/kg/day"}, {"measurement": "NOAEL", "setting": "mouse [8]; [23]", "result": 7.1, "unit": "mg/kg/day"}, {"measurement": "LEL", "setting": "mouse [8]; systemic / pathology microscopic / liver / hypertrophy + systemic / hematology / lymphocyte / lymphocyte + systemic / hematology / …", "result": 14.8, "unit": "mg/kg/day"}, {"measurement": "LOAEL", "setting": "mouse [9]; systemic / in life observation / clinical signs / scabbing + systemic / pathology microscopic / brain / vacuolization", "result": 16.6, "unit": "mg/kg/day"}, {"measurement": "NOAEL", "setting": "mouse [9]; systemic / in life observation / clinical signs / scabbing + systemic / pathology microscopic / brain / vacuolization + systemic / …", "result": 2.8, "unit": "mg/kg/day"}, {"measurement": "LEL", "setting": "mouse [9]; [24]", "result": 2.8, "unit": "mg/kg/day"}, {"measurement": "NEL", "setting": "mouse [9]; [24]", "result": "< 2.8", "unit": "mg/kg/day"}, {"measurement": "NEL", "setting": "rat [10]; [25]", "result": 24.1, "unit": "mg/kg/day"}, {"measurement": "NOAEL", "setting": "rat [10]; [25]", "result": 24.1, "unit": "mg/kg/day"}, {"measurement": "LEL", "setting": "rat [10]; [26]", "result": 48.4, "unit": "mg/kg/day"}, {"measurement": "LOAEL", "setting": "rat [10]; [26]", "result": 48.4, "unit": "mg/kg/day"}, {"measurement": "NEL", "setting": "rat [11]; [27]", "result": 30.8, "unit": "mg/kg/day"}, {"measurement": "NOAEL", "setting": "rat [11]; [27]", "result": 2.9, "unit": "mg/kg/day"}, {"measurement": "LOAEL", "setting": "rat [11]; [22]", "result": 15, "unit": "mg/kg/day"}, {"measurement": "LOAEL", "setting": "dog [12]; systemic / in life observation / body weight / body weight + systemic / in life observation / body weight / body weight gain", "result": 8.7, "unit": "mg/kg/day"}, {"measurement": "LEL", "setting": "dog [12]; [28]", "result": 8.7, "unit": "mg/kg/day"}, {"measurement": "NEL", "setting": "dog [12]; [28]", "result": 4, "unit": "mg/kg/day"}, {"measurement": "NOAEL", "setting": "dog [12]; [28]", "result": 4, "unit": "mg/kg/day"}, {"measurement": "LEL", "setting": "dog [13]", "result": 6.7, "unit": "mg/kg/day"}, {"measurement": "LOAEL", "setting": "dog [13]", "result": 6.7, "unit": "mg/kg/day"}, {"measurement": "NEL", "setting": "dog [13]", "result": 3.9, "unit": "mg/kg/day"}, {"measurement": "NOAEL", "setting": "dog [13]", "result": 3.9, "unit": "mg/kg/day"}, {"measurement": "LEL", "setting": "rat [14]; [29]", "result": 22, "unit": "mg/kg/day"}, {"measurement": "LOAEL", "setting": "rat [14]; [29]", "result": 22, "unit": "mg/kg/day"}, {"measurement": "NEL", "setting": "rat [14]; [29]", "result": 5, "unit": "mg/kg/day"}, {"measurement": "NOAEL", "setting": "rat [14]; [29]", "result": 5, "unit": "mg/kg/day"}, {"measurement": "NEL", "setting": "rat [14]; group: parental, systemic / in life observation / body weight / body weight + systemic / in life observation / body weight / body weight gain", "result": 5, "unit": "mg/kg/day"}, {"measurement": "LOAEL", "setting": "rat [14]; group: parental, systemic / in life observation / body weight / body weight gain", "result": 22, "unit": "mg/kg/day"}, {"measurement": "LEL", "setting": "rat [14]; [30]", "result": 22, "unit": "mg/kg/day"}, {"measurement": "NOAEL", "setting": "rat [14]; [30]", "result": 5, "unit": "mg/kg/day"}, {"measurement": "LEL", "setting": "rat [14]; [31]", "result": 44, "unit": "mg/kg/day"}, {"measurement": "LOAEL", "setting": "rat [14]; [31]", "result": "> 44", "unit": "mg/kg/day"}, {"measurement": "NEL", "setting": "rat [14]; [31]", "result": 22, "unit": "mg/kg/day"}, {"measurement": "NOAEL", "setting": "rat [14]; [31]", "result": "≥ 44", "unit": "mg/kg/day"}]}
